This note sets out measurements from PMC12951562, “SH2scan: Mapping SH2 Domain-Ligand Binding Selectivity for Inhibitors and Degraders” (Journal of Medicinal Chemistry, 2026).

Where “and” joins values, the source holds several entries; their conditions need not be identical. Equal entries are not always repeated. Where two headings read alike, the source gives them in different places. Non-standard residues stand in square brackets, D forms with d. Residues, ends and D or L forms follow the SMILES beside them. *: point of attachment. pY = N[C@@H](Cc1ccc(OP(=O)(O)O)cc1)C(=O)O; Caffeoyl = O=C(/C=C/c1ccc(O)c(O)c1)*

Common to all, as to assay: biochemical
Common to all, as to type: binding

The target in one assay is T1, STAP2 (Homo sapiens, UniProt Q9UGK3).
T1 construct: made in house; host or cells: HEK293 (transient transfection), unpurified extract
T1 sequence (Q9UGK3 1-403): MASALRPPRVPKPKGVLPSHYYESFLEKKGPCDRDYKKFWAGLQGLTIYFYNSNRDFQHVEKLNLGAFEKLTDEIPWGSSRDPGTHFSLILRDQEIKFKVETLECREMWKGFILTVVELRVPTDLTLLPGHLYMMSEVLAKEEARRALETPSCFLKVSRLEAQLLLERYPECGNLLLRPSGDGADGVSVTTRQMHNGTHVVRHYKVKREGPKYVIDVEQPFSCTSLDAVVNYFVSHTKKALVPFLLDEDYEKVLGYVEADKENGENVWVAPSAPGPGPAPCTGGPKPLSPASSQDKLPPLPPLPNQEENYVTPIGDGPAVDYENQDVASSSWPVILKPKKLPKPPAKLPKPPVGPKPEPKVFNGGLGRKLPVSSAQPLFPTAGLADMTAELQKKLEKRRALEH

The target of the next assay is T2, DAPP1 (Homo sapiens, UniProt Q9UN19).
T2 construct: the DNA-tagged SH2 domain concentrations used in this study were <0.1 nM; made in house; host or cells: HEK293 (transient transfection; unpurified extract)
T2 sequence (Q9UN19 35-129 limits assumed): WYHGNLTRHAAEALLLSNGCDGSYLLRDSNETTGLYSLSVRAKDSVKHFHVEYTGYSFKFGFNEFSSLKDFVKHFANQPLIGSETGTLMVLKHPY
The settings on record: read-out: percent of DMSO vehicle control.

For a further assay, the target named is T3, GRAP (Homo sapiens, UniProt Q13588).
T3 construct: the DNA-tagged SH2 domain concentrations used in this study were <0.1 nM; made in house; host or cells: HEK293 (transient transfection; unpurified extract)
T3 sequence (Q13588 60-154 limits assumed): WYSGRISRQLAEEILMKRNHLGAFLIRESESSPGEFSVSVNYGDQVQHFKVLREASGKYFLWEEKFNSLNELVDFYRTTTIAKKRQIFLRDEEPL
The following applies: read-out: percent of DMSO vehicle control.

The next assay addresses T4, RASA1(SH2dom.C-term.) (Homo sapiens, UniProt P20936).
T4 construct: SH2dom.C-term. denotes SH2 domain closest to C-terminus of protein; made in house; host or cells: HEK293 (transient transfection, unpurified extract)
T4 sequence (P20936 351-441 limits assumed): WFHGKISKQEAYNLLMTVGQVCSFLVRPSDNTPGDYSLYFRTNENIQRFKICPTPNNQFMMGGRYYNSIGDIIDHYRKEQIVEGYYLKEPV
The following applies: read-out: percent of DMSO vehicle control.

The next assay deals with T5, TNS1 (Homo sapiens, UniProt Q9HBL0).
T5 construct: made in house; host or cells: HEK293 (transient transfection), unpurified extract
T5 sequence (Q9HBL0 whole entry): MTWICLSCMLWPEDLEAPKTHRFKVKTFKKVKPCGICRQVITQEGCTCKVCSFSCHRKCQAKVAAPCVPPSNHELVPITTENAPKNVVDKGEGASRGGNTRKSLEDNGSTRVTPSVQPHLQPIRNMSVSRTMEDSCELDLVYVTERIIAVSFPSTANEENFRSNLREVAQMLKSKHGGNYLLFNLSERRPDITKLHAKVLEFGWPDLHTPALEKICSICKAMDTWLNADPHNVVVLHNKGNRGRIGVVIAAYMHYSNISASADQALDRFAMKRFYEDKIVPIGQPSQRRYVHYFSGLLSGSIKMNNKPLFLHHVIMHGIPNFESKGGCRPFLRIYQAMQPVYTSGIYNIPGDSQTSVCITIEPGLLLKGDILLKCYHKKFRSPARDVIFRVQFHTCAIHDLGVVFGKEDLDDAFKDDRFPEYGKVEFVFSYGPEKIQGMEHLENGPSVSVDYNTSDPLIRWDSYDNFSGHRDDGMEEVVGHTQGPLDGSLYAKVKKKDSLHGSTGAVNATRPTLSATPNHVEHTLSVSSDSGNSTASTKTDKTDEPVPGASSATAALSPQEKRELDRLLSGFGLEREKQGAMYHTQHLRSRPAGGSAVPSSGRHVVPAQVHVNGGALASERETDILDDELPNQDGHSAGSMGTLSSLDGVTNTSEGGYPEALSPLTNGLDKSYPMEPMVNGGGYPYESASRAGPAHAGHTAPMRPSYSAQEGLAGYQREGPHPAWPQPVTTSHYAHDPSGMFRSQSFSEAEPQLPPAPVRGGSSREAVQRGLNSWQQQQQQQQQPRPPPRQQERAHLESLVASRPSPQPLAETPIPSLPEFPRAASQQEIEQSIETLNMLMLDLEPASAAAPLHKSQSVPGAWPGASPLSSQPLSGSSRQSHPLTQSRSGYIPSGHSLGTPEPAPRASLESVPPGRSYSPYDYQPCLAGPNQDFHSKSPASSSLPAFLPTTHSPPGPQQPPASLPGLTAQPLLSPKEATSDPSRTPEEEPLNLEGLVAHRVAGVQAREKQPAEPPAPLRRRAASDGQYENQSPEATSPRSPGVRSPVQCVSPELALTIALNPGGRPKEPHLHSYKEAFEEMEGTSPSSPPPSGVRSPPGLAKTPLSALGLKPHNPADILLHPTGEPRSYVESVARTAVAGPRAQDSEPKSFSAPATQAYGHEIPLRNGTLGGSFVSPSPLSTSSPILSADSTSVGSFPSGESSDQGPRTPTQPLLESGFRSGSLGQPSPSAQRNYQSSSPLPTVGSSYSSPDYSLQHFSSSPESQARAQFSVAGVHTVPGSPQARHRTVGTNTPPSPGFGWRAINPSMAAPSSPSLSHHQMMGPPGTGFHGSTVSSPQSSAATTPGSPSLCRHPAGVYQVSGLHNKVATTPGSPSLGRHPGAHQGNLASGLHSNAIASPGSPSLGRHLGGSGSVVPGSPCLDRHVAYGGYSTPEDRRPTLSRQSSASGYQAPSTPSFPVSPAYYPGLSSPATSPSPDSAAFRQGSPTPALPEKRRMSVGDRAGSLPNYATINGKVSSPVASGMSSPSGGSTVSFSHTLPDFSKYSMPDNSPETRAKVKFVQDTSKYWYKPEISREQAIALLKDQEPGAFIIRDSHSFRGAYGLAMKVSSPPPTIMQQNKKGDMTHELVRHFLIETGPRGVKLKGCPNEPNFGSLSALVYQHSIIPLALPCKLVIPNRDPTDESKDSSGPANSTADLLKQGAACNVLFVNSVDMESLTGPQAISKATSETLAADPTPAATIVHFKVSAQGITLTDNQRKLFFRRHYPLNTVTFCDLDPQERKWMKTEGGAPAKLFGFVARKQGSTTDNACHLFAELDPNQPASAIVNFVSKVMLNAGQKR

In another assay the target is T6, LCK (Homo sapiens, UniProt P06239).
T6 construct: the DNA-tagged SH2 domain concentrations used in this study were <0.1 nM; made in house; host or cells: HEK293 (transient transfection, unpurified extract)
T6 sequence (P06239 127-224 limits assumed): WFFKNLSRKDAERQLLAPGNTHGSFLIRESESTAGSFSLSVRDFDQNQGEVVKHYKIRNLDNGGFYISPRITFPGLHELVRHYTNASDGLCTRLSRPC

The target in a further assay is T7, SLAP2 (Homo sapiens, UniProt Q9H6Q3).
T7 construct: made in house; host or cells: HEK293 (transient transfection), unpurified extract
T7 sequence (Q9H6Q3 1-261): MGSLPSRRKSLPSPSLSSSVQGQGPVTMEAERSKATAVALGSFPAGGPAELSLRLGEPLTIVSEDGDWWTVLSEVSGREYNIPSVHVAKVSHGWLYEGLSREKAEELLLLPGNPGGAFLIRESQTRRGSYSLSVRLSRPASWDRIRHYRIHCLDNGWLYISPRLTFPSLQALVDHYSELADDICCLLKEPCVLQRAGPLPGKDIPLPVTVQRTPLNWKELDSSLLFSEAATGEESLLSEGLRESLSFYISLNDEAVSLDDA
The following applies: for remaining activity at 10 µM: read-out: percent of DMSO vehicle control.

A further assay concerns the target T8, SHC3 (Homo sapiens, UniProt Q92529).
T8 construct: made in house; host or cells: HEK293 (transient transfection), unpurified extract
T8 sequence (Q92529 1-594): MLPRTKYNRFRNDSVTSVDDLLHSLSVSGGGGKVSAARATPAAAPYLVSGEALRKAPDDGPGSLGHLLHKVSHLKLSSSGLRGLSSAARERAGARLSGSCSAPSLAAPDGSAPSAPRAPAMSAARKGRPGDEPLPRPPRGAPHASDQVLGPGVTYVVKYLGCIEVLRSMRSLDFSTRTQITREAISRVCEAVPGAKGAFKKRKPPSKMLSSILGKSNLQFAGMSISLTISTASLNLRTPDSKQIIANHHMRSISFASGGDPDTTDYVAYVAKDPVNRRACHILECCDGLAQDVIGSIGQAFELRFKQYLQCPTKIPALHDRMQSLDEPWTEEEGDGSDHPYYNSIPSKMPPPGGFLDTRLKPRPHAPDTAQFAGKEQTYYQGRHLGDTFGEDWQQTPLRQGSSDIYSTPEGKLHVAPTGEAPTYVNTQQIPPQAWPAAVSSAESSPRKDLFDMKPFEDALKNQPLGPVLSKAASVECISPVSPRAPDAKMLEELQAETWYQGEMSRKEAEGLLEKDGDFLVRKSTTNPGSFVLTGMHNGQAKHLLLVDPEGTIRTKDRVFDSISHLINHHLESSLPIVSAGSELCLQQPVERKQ
The following applies: for remaining activity at 10 µM: read-out: percent of DMSO vehicle control.

In the next assay the target is T9, STAT4 (Homo sapiens, UniProt Q14765).
T9 construct: made in house; host or cells: HEK293 (transient transfection), unpurified extract
T9 sequence (Q14765 1-748): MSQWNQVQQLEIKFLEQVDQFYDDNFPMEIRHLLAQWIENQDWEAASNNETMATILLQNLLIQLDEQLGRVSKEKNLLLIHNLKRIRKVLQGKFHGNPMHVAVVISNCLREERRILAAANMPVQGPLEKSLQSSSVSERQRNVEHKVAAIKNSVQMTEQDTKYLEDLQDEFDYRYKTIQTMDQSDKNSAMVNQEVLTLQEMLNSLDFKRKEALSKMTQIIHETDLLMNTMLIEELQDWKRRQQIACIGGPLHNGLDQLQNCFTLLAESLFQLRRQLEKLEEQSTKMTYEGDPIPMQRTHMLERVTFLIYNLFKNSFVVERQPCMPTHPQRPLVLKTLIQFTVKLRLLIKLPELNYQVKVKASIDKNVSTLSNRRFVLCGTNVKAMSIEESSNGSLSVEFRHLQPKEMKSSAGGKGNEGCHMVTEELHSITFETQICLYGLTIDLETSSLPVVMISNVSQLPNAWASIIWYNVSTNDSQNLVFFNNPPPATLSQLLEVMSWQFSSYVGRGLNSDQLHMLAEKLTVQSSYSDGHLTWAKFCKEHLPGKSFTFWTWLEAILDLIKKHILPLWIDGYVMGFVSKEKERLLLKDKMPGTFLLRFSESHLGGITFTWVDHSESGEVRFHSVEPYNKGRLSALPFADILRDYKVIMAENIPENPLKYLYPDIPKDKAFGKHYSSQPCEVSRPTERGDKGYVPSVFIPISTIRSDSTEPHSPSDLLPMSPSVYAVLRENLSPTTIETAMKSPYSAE
The settings on record: for percent of DMSO vehicle control: primary screen, 10 μM.

In the next assay the target is T10, SH2B (SH2B1) (Homo sapiens, UniProt Q9NRF2).
T10 construct: made in house; host or cells: HEK293 (transient transfection), unpurified extract
The settings on record: for remaining activity at 10 µM: read-out: percent of DMSO vehicle control.

The target in the next assay is T11, FER (Homo sapiens, UniProt P16591).
T11 construct: the DNA-tagged SH2 domain concentrations used in this study were <0.1 nM; made in house; host or cells: HEK293 (transient transfection; unpurified extract)
T11 sequence (P16591 460-550 limits assumed): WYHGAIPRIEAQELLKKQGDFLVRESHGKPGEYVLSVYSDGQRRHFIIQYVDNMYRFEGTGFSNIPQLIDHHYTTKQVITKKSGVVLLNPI

The mark [1] stands for this setting: primary screen, 10 μM, read-out: percent of DMSO vehicle control.
[2] abbreviates: read-out: percent of DMSO vehicle control.

As to `C/C(=C\C(=O)N[C@H](C(=O)N1CCC[C@H]1C(=O)N(c1ccccc1)c1ccc(I)cc1)C(C)(C)C)c1ccc(OP(=O)(O)O)cc1` [STAT6-IN-1], the Kd turned out to be 16300 nM on STAP2 (dose-response, read-out: KD); 3600 ± 570 nM on SHC3 (dose-response, read-out: KD); 220 ± 67 nM on STAT4 (dose-response, read-out: KD); 1400 ± 71 nM at FER (dose-response, read-out: KD). For the same compound, the remaining activity at 10 µM at STAP2 (setting [1]) stood at 58.4 ± 51.4%; at DAPP1 (primary screen, 10 μM), 41.1 ± 13.9%; on GRAP (primary screen, 10 μM), 52 ± 15.9%; at RASA1(SH2dom.C-term.) (primary screen, 10 μM) it was 76.6 ± 7.8%; on TNS1 (setting [1]) it was 87.6 ± 10%; on LCK (setting [1]), 48.3 ± 1.3%. The remaining activity at 10 µM amounted to 55.8 ± 2.8% at SLAP2 (primary screen, 10 μM); 35.3 ± 4.8% at SHC3 (primary screen, 10 μM); 22.6 ± 6.8% on SH2B (SH2B1) (primary screen, 10 μM); 8.5 ± 0.1% on FER (setting [1]). Further, the “percent of DMSO vehicle control” value at STAT4 is reported as 0.0±0.0%.

For the compound `CC[C@H](C)[C@H](NC(=O)[C@H](CCC(=O)O)NC(=O)[C@H](CCC(=O)O)NC(=O)[C@H](Cc1ccc(OP(=O)(O)O)cc1)NC(=O)/C=C/c1ccc(O)c(O)c1)C(=O)N[C@@H](CCC(=O)O)C(=O)O` [Caffeic acid-pYEEIE] (Caffeoyl-[pY]EEIE-OH), the Kd was 23200 nM on STAP2; 3800 ± 610 nM at TNS1; 3.7 ± 0.62 nM on LCK; 310 nM and 314 nM on SLAP2 (KD, dose-response); 130 ± 120 nM on SHC3; 4400 ± 370 nM at STAT4. The Kd amounted to 910 ± 310 nM at SH2B (SH2B1) and 62 ± 86 nM at FER. The percent of DMSO vehicle control at 10 µM was found to be 58.7 ± 7.4% at STAP2 (setting [2]); 39.2 ± 3.2% on DAPP1; 109.9 ± 0.3% at GRAP; 25.5 ± 1.1% at TNS1 (setting [2]); 0% at LCK (setting [2]); 0.8 ± 0.8% at FER (setting [2]). The remaining activity at 10 µM on RASA1(SH2dom.C-term.) stood at 78 ± 6.4%; on SLAP2, 5.3 ± 3.8%; at SHC3 it was 0%; at SH2B (SH2B1) it was 2.3 ± 0.4%. For the same compound, the “percent of DMSO vehicle control” value at STAT4 is reported as 8.8±0.4%.

The compound `CC[C@H](C)[C@H](NC(=O)[C@H](CO)NC(=O)[C@H](CC(C)C)NC(=O)[C@H](CCCNC(=N)N)NC(=O)[C@H](CO)NC(=O)[C@H](CS)NC(C)=O)C(=O)N[C@@H](Cc1ccc(OP(=O)(O)O)cc1)C(=O)N[C@@H](CC(=O)O)C(=O)N[C@@H](CC(N)=O)C(=O)N[C@H](C(=O)N1CCC[C@H]1C(=O)NCC(N)=O)C(C)C` [Ac-CSRLSIpYDNVPG-NH2] (Ac-CSRLSI[pY]DNVPG-NH2) came in with a Kd at TNS1 of 1350 ± 530 nM.
